# Assays:
# [1] = test system: patients suffering from osteoporosis; settings: 32 osteoporosis patients, daily dose 6.4 g (1.7 g as Sr), three months to three years; cited from earlier work
# plasma insulin = assay: Plasma insulin concentration in KKAy mice at end of feeding; format: in vivo; settings: 56th day, control group 7.0 ng/ml (100%), normal mice 16%
# Procedure: (§1) Firstly, four kinds of feeds were prepared for animal tests.
# (§2) Feeding of the mice of those four groups was conducted in a single feeding manner and water was freely taken by each mouse.
# (§3) Blood glucose level during the feeding period (until the 51st day) and blood glucose level, blood insulin concentration, blood leptin concentration and adiponectin concentration were measured when the feeding finished (on the 56th day) whereby the action of each ingredient on the mice was checked. Further, in order to compare with the diabetic model mice, normal mice (eight males) of the same 13 weeks age were used as a normal group and their blood was collected upon finishing the feeding followed by measuring each of the above concentrations.
# Concentration of insulin in plasma was measured upon finishing the feeding (on the 56th day).
# plasma leptin = assay: Plasma leptin concentration in KKAy mice at end of feeding; format: in vivo; settings: 56th day, control group 7.3 ng/ml (100%), normal mice 15%
# Procedure: as §1, §2, §3
# Concentration of leptin was also measured upon finishing the feeding (on the 56th day).
# PPAR-α mRNA in pancreas = assay: Quantification of expression of PPAR-α mRNA in pancreas (real-time quantitative PCR); format: in vivo; settings: KKAy mice after feeding; ratio to GAPDH mRNA; control group 0.61 (100%), normal mice 123%
# Procedure: (§4) According to the conventional method, RNA was extracted from the cells of pancreas and kidney. cDNA was prepared by a reverse transcription reaction from the RNA and quantitative determination of expression amount of mRNA related to diabetes was carried out by means of a real-time quantitative PCR. In the following experiments, quantitative determination of the expression amount of mRNA was analyzed using Mx 3000P (manufactured by Stratagene). In all cases, condition for the PCR was that a hot start was conduced at 95° C. for 10 minutes and then a cycle comprising 95° C. for 30 seconds, 60° C. for 1 minute and 72° C. for 30 seconds was repeated for 45 times. At the same time, dilution rows of five stages were prepared using a control RNA of 5 ng/μl concentration and expression amount of RNA was determined from the resulting standard curve. As to a reagent for the PCR, Brilliant SYBR Green QPCR Master Mix (manufactured by Stratagene) was used in accordance with a protocol for its manual for use. […] Incidentally, expression amount of mRNA of a test substance in each test was indicated in terms of a ng ratio of the commonly expressed GAPDH enzyme to the amount of mRNA (internal standard).
# The expression amount of the PPAR-α mRNA was measured by the PCR using the following primers.
# insulin mRNA in pancreas = assay: Quantification of expression of insulin mRNA in pancreas (real-time quantitative PCR); format: in vivo; settings: KKAy mice after feeding; ratio to GAPDH mRNA; control group 5.12×10^4 (100%), normal mice 11%
# Procedure: as §4
# Expression amount of insulin mRNA in the pancreas was measured by the PCR using the following primers.
# [2] = test system: spontaneously obese insulin-resistant diabetic mice (KKAy); assay: Blood glucose level in KKAy mice fed test feeds; format: in vivo; settings: for blood glucose level upon finishing the feeding, % of control group: 56th day, control group 306 mg/dl (100%), normal mice 34%; for blood glucose level, mean value: tail vein blood
# Procedure: as §1, §2, §3
# During the feeding period for the two months, blood was collected from tail vein of the mice upon the initiation of the feeding (on the 0th day) and on the 15th, 37th and 51st days from the initiation of the feeding and the blood glucose level therein was measured.
# PPAR-γ mRNA in pancreas = assay: Quantification of expression of PPAR-γ mRNA in pancreas (real-time quantitative PCR); format: in vivo; settings: KKAy mice after feeding; ratio to GAPDH mRNA; control group 0.28 (100%), normal mice 161%
# Procedure: as §4
# The expression amount of PPAR-γ mRNA was measured by the PCR using the following primer.
# PPAR-α mRNA in kidney = assay: Quantification of expression of PPAR-α mRNA in kidney (real-time quantitative PCR); format: in vivo; settings: KKAy mice after feeding; ratio to GAPDH mRNA; control group 0.532 (100%)
# Procedure: as §4
# Expression amount of PPAR-α mRNA in kidney was measured by the PCR using the following primers.
# [3] = test system: adiponectin mRNA in kidney; assay: Quantification of expression of adiponectin mRNA in kidney (real-time quantitative PCR); format: in vivo; settings: KKAy mice after feeding; ratio to GAPDH mRNA; control group 2.53×10^−3 (100%)
# Procedure: as §4
# Expression amount of adiponectin mRNA in kidney was measured by the PCR using the following primers.
# [4] = test system: PPARγ in bone marrow cells of femur; assay: Expression of PPARγ mRNA in bone marrow cells of femur (real-time quantitative PCR); format: in vivo; settings: KKAy mice after feeding; control group 5.05×10^−2 (100%)
# [5] = test system: adiponectin mRNA in pancreas; assay: Quantification of expression of adiponectin mRNA in pancreas (real-time quantitative PCR); format: in vivo; settings: KKAy mice after feeding; ratio to GAPDH mRNA; control group 1.07 (100%), normal mice 145%
# Procedure: as §4
# Expression amount of adiponectin mRNA was measured by the PCR using the following primers.
# PPAR-γ mRNA in kidney = assay: Quantification of expression of PPAR-γ mRNA in kidney (real-time quantitative PCR); format: in vivo; settings: KKAy mice after feeding; ratio to GAPDH mRNA; control group 0.56 (100%)
# Procedure: as §4
# Expression amount of PPAR-γ mRNA in kidney which adjusts adiponectin and its expression promoting the fatty acid combustion in tissues thereof was measured by the PCR using the following primers.
# plasma adiponectin = assay: Plasma adiponectin concentration in KKAy mice at end of feeding; format: in vivo; settings: 56th day, control group 1.1 μg/ml (100%), normal mice 46%
# Procedure: as §1, §2, §3
# It has been said that a plasma adiponectin which is an anti-antidiabetic and anti-arteriosclerotic factor derived from fat tissues enhances insulin sensitivity and improves insulin resistant diabetes due to its action of activating the fatty acid oxidation in systemic muscles and reducing the neutral fat amount (Iichiro Shimomura, Toru Funahashi and Yuji Matsuzawa: Adiponectin—Anti-antidiabetic and anti-arteriosclerotic factor derived from fat tissues, Molecular Medicine, Vol. 39, No. 4, 416-423, 2002). […] The concentration of adiponectin was also measured upon finishing the feeding (on the 56th day).
# [6] = 15th day of feeding, control group 214
# [7] = 37th day of feeding, control group 386
# [8] = 51st day of feeding, control group 339
# [9] = initiation of feeding (0th day), control group 167
Structure (SMILES),patients in whom improvement was achieved [1],"plasma insulin concentration, % of control group (plasma insulin)","plasma leptin concentration, % of control group (plasma leptin)","expression amount of PPAR-α mRNA in pancreas, % of control group (PPAR-α mRNA in pancreas)","expression amount of insulin mRNA in pancreas, % of control group (insulin mRNA in pancreas)","blood glucose level upon finishing the feeding, % of control group [2]","blood glucose level, mean value [2, 6]","blood glucose level, mean value [2, 7]","blood glucose level, mean value [2, 8]","blood glucose level, mean value [2, 9]","expression amount of PPAR-γ mRNA in pancreas, % of control group (PPAR-γ mRNA in pancreas)","expression amount of PPAR-α mRNA in kidney, % of control group (PPAR-α mRNA in kidney)","expression amount of adiponectin mRNA in kidney, % of control group [3]","expression amount of PPARγ in bone marrow cells of femur, % of control group [4]","expression amount of adiponectin mRNA in pancreas, % of control group [5]","expression amount of PPAR-γ mRNA in kidney, % of control group (PPAR-γ mRNA in kidney)","plasma adiponectin concentration, % of control group (plasma adiponectin)"
CC(O)C(=O)[O-].CC(O)C(=O)[O-].[Sr+2] (stereo not drawn) [strontium lactate],84%,–,–,–,–,–,–,–,–,–,–,–,–,–,–,–,–
"O=[Si]([O-])[O-].[Na+].[Na+] [Si group, sodium metasilicate]",–,68%,76%,116%,9%,86%,231 mg/dL,268 mg/dL,235 mg/dL,156 mg/dL,125%,171%,135%,50%,128%,141%,70%
"[Cl-].[Cl-].[Sr+2] [Sr group, strontium chloride]",–,70%,71%,104%,64%,55%,200 mg/dL,288 mg/dL,247 mg/dL,150 mg/dL,181%,169%,123%,65%,117%,136%,42%

# Source: patent publication US20100028457A1, “AGENT FOR PREVENTION OR TREATMENT OF BLOOD GLUCOSE LEVEL ELEVATION” (UNIVERSITY OF THE RYUKYUS, priority 2006, published 2010)
